# In patent US20140051679A1, “KINASE INHIBITORS AND METHOD OF TREATING CANCER WITH SAME” (UNIVERISTY HEALTH NETWORKS, priority 2011, published 2014):
# Columns and labels:
# Format in all cases: biochemical
# human PLK4 = biological target: T1, human PLK4 (Homo sapiens, UniProt O00444); assay: PLK4 inhibition assay (indirect ELISA); settings: GST-PLK4 4 nM, 15 μM ATP; read-out: IC50 Ranges PLK4
# T1 construct: amino terminal GST fusion of residues 1-391 of human PLK4; made in house; host or cells: E. coli
# T1 sequence (O00444 1-391): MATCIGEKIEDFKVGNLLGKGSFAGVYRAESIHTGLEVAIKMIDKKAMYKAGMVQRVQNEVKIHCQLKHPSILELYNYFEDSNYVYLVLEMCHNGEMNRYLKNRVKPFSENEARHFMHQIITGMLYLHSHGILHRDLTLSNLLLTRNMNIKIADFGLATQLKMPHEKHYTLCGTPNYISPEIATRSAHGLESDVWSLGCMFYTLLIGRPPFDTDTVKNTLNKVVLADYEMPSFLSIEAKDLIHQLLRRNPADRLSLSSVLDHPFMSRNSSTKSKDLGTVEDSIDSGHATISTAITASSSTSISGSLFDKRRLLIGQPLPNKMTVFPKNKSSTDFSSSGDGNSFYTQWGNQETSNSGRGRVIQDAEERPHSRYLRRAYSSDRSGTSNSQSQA
# Experimental: Active PLK4 was purified from an E. coli expression system as an amino terminal GST fusion of residues 1-391 of human PLK4. The protein was purified from clarified cell extracts after induction at 15° C. overnight using glutathione sepharose, gel permeation chromatography, and ion exchange (Resource Q). The resulting protein was dephosphorylated with lambda phosphatase (NEB cat#P0753), and resolved from the phosphatase using gluthione sepharose. The dephosphorylated GST-PLK4 was stored in aliquots at −80° C. until use.
# PLK4 activity was measured using an indirect ELISA detection system. GST-PLK4 (4 nM) was incubated in the presence of 15 μM ATP (Sigma cat#A7699), 50 mM HEPES-Na^2+ pH 7.5, 10 mM MgCl2, 0.01% Brij 35 (Sigma cat#03-3170), in a 96 well microtitre plate pre-coated with MBP (Millipore cat#30-011). The reaction was allowed to proceed for 30 minutes, followed by 5 washes of the plate with Wash Buffer (phosphate buffered saline supplemented with 0.2% Tween 20), and incubation for 30 minutes with a 1:3000 dilution of primary antibody (Cell Signaling cat#9381). The plate was washed 5 times with Wash Buffer, incubated for 30 minutes in the presence of secondary antibody coupled to horse radish peroxidase (BioRad cat#1721019, 1:3000 concentration), washed an additional 5 times with Wash Buffer, and incubated in the presence of TMB substrate (Sigma cat#T0440). The colourimetric reaction was allowed to continue for 5 minutes, followed by addition of stop solution (0.5 N sulphuric acid), and quantified by detection at 450 nm with either a monochromatic or filter based plate reader (Molecular Devices M5 or Beckman DTX880, respectively).
# Compound inhibition was determined at either a fixed concentration (10 μM) or at a variable inhibitor concentration (typically 0.5 μM to 0.001 μM in a 10 point dose response titration). Compounds were pre-incubated in the presence of enzyme for 15 minutes prior to addition of ATP and the activity remaining quantified using the above described activity assay. The % Inhibition of a compound was determined using the following formula; % Inhibition=100×(1-(experimental value−background value)/(high activity control−background value)). The IC50 value was determined using a non-linear 4 point logistic curve fit (XLfit4, IDBS) with the formula; (A+(B/(1+((x/C)̂D)))), where A=background value, B=range, C=inflection point, D=curve fit parameter.
# human TTK = biological target: T2, human TTK (Homo sapiens, UniProt P33981); assay: TTK inhibition assay (indirect ELISA); settings: GST-TTK 0.68 nM, 16 μM ATP; read-out: IC50 Ranges TTK
# T2 construct: amino terminal GST fusion of full length human TTK; purchased Invitrogen
# T2 sequence (P33981 1-857): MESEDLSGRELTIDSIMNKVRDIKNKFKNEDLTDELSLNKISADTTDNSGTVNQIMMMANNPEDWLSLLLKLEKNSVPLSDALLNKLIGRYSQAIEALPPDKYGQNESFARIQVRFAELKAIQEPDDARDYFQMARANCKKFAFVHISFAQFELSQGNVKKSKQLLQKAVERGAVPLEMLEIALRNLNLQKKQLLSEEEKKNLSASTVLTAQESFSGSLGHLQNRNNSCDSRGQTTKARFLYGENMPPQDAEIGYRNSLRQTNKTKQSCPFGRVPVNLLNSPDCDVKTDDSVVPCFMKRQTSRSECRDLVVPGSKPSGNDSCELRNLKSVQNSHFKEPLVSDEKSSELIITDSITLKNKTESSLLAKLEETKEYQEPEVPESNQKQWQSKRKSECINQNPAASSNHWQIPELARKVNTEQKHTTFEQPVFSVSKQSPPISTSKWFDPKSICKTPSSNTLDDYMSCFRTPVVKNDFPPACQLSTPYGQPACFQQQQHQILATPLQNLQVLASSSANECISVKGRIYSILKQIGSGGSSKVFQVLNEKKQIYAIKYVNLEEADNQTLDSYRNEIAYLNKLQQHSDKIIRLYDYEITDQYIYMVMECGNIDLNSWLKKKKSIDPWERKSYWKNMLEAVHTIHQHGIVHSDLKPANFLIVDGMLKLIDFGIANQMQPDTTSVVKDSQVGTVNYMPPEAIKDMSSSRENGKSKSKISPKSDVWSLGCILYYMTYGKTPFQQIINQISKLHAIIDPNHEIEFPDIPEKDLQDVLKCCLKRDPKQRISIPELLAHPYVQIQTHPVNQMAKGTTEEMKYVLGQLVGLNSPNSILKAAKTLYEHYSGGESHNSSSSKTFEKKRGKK
# Aurora B = biological target: T3, Aurora B (Homo sapiens, UniProt Q96GD4); assay: Aurora B inhibition assay (Z-Lyte); settings: 28 nM Aurora B, 128 μM ATP; read-out: IC50 Ranges Aurora B
# T3 construct: purchased Invitrogen PV3970
# T3 sequence (Q96GD4 whole entry): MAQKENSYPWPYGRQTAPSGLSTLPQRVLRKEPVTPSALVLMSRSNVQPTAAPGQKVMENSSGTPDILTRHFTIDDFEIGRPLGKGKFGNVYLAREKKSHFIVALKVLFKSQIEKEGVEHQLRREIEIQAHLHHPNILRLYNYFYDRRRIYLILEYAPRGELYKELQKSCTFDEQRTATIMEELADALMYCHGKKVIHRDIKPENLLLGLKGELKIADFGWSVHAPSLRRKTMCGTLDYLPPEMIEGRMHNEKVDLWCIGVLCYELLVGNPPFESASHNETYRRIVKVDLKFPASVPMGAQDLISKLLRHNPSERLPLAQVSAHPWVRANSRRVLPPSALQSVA
# Experimental: Aurora B inhibition was determined using the Z-Lyte assay kit from Invitrogen. The assay was performed using the recommended manufacturer's instructions with 128 μM ATP and 28 nM Aurora B (Invitrogen cat #PV3970). The % inhibition values were determined according to the manufacturer's directions and IC50 values were obtained using a non-linear 4 point logistic curve fit (XLfit4, IDBS)
structure (smiles),measurement,setting,value
"CN1CCC(Oc2ccc(-c3n[nH]c4ccc(C(=O)NCC(c5ccccc5)C5CCCC5)cc34)cc2)CC1 (centres unmarked) [Example A207, N-(2-cyclopentyl-2-phenylethyl)-3-(4-((1-methylpiperidin-4-yl)oxy)phenyl)-1H-indazole-5-carboxamide]",IC50,human PLK4,≤ 5 µM
same,IC50,human TTK,≤ 5 µM
same,IC50,Aurora B,≤ 5 µM
"O=C(N[C@H](c1ncccc1Cl)C1CC1)c1ccc2[nH]nc(-c3ccc(OC4CCN(C5COC5)CC4)cc3)c2c1 [Example A216, (S)—N-((3-chloropyridin-2-yl)(cyclopropyl)methyl)-3-(4-((1-(oxetan-3-yl)piperidin-4-yl)oxy)phenyl)-1H-indazole-5-carboxamide]",IC50,human PLK4,≤ 5 µM
same,IC50,human TTK,≤ 5 µM
"COc1cc(-c2n[nH]c3ccc(C(=O)NC(c4ccccn4)C4CC4)cc23)ccc1OC1CCN(C=O)CC1 (centres unmarked) [Example A206, N-(cyclopropyl(pyridin-2-yl)methyl)-3-(4-((1-formylpiperidin-4-yl)oxy)-3-methoxyphenyl)-1H-indazole-5-carboxamide]",IC50,human PLK4,≤ 5 µM
same,IC50,human TTK,≤ 5 µM
same,IC50,Aurora B,≤ 5 µM
"CN1CCC(Oc2ccc(-c3n[nH]c4ccc(C(=O)NC(c5ccccc5)C5CC5)cc34)cc2)CC1 (centres unmarked) [Example A24, N-(cyclopropyl(phenyl)methyl)-3-(4-((1-methylpiperidin-4-yl)oxy)phenyl)-1H-indazole-5-carboxamide]",IC50,human PLK4,≤ 5 µM
same,IC50,Aurora B,≤ 5 µM
"CN1CCC(Oc2ccc(-c3n[nH]c4ccc(C(=O)NC(c5ccccn5)C5CCCC5)cc34)cc2)CC1 (centres unmarked) [Example A208, N-(cyclopentyl(pyridin-2-yl)methyl)-3-(4-((1-methylpiperidin-4-yl)oxy)phenyl)-1H-indazole-5-carboxamide]",IC50,human PLK4,≤ 5 µM
same,IC50,Aurora B,≤ 5 µM
"CN(C)CC(=O)N1CCC(Oc2ccc(-c3n[nH]c4ccc(C(=O)NC(c5ccccc5)C5CC5)cc34)cc2)CC1 (centres unmarked) [Example A130, N-(cyclopropyl(phenyl)methyl)-3-(4-((1-(2-(dimethylamino)acetyl)piperidin-4-yl)oxy)phenyl)-1H-indazole-5-carboxamide]",IC50,human PLK4,≤ 5 µM
same,IC50,Aurora B,≤ 5 µM
"O=CN1CCC(Oc2ccc(-c3n[nH]c4ccc(C(=O)N[C@@H](c5ncccc5Cl)C5CC5)cc34)cc2)CC1 [Example A211, (R)—N-((3-chloropyridin-2-yl)(cyclopropyl)methyl)-3-(4-((1-formylpiperidin-4-yl)oxy)phenyl)-1H-indazole-5-carboxamide]",IC50,human PLK4,≤ 5 µM
same,IC50,human TTK,≤ 5 µM
same,IC50,Aurora B,≤ 5 µM
"CN1CCC(Oc2ccc(-c3n[nH]c4ccc(C(=O)N[C@H](c5ccccn5)C5CC5)cc34)cc2)CC1 [Example A214, (S)—N-(cyclopropyl(pyridin-2-yl)methyl)-3-(4-((1-methylpiperidin-4-yl)oxy)phenyl)-1H-indazole-5-carboxamide]",IC50,human PLK4,≤ 5 µM
same,IC50,human TTK,≤ 5 µM
same,IC50,Aurora B,≤ 5 µM
"O=C(Nc1ccc2[nH]nc(-c3ccc(N4CCC(O)CC4)cc3)c2c1)C(c1ccsc1)N1CCCC1 (centres unmarked) [Example A9, N-(3-(4-(4-hydroxypiperidin-1-yl)phenyl)-1H-indazol-5-yl)-2-(pyrrolidin-1-yl)-2-(thiophen-3-yl)acetamide]",IC50,human PLK4,≤ 5 µM
same,IC50,Aurora B,≤ 5 µM
"O=C(NC(c1ccccn1)C1CC1)c1ccc2[nH]nc(-c3ccc(OC4CN(C5COC5)C4)cc3)c2c1 (centres unmarked) [Example A209, N-(cyclopropyl(pyridin-2-yl)methyl)-3-(4-((1-(oxetan-3-yl)azetidin-3-yl)oxy)phenyl)-1H-indazole-5-carboxamide]",IC50,human PLK4,≤ 5 µM
same,IC50,human TTK,≤ 5 µM
same,IC50,Aurora B,≤ 5 µM
"CN1CCN(c2ccc(-c3n[nH]c4ccc(NC(=O)C(c5ccsc5)N5CCCC5)cc34)cc2)C(=O)C1 (centres unmarked) [Example A94, N-(3-(4-(4-Methyl-2-oxopiperazin-1-yl)phenyl)-1H-indazol-5-yl)-2-(pyrrolidin-1-yl)-2-(thiophen-3-yl)acetamide]",IC50,human PLK4,≤ 5 µM
same,IC50,human TTK,≤ 5 µM
"CC[C@@H](NC(=O)c1ccc2[nH]nc(-c3ccc(OC4CCN(C)CC4)cc3)c2c1)c1ccccc1Cl [Example A131, (R)—N-(1-(2-chlorophenyl)propyl)-3-(4-((1-methylpiperidin-4-yl)oxy)phenyl)-1H-indazole-5-carboxamide]",IC50,human PLK4,≤ 5 µM
same,IC50,Aurora B,≤ 5 µM
"CN1CCC(Oc2ccc(-c3n[nH]c4ccc(C(=O)N[C@H](c5ccccc5)C5CC5)cc34)cc2)CC1 [Example A42, (S)—N-(cyclopropyl(phenyl)methyl)-3-(4-((1-methylpiperidin-4-yl)oxy)phenyl)-1H-indazole-5-carboxamide]",IC50,human PLK4,≤ 5 µM
same,IC50,Aurora B,≤ 5 µM
"CN1CCC(Oc2ccc(-c3n[nH]c4ccc(NC(=O)C(c5ccccn5)C5CCCC5)cc34)cc2)CC1 (centres unmarked) [Example A179, 2-cyclopentyl-N-(3-(4-((1-methylpiperidin-4-yl)oxy)phenyl)-1H-indazol-5-yl)-2-(pyridin-2-yl)acetamide]",IC50,human PLK4,≤ 5 µM
same,IC50,Aurora B,≤ 5 µM
"CCN(C(=O)Nc1ccc2[nH]nc(-c3ccc(N4CCOCC4)cc3)c2c1)c1ccccc1 [Example A72, 1-ethyl-3-(3-(4-morpholinophenyl)-1H-indazol-5-yl)-1-phenylurea]",IC50,human PLK4,≤ 5 µM
same,IC50,human TTK,≤ 5 µM
"CN1CCC(Oc2ccc(-c3n[nH]c4ccc(NC(=O)C(c5ccsc5)N5CCCC5)cc34)cc2)CC1 (centres unmarked) [Example A7, N-(3-(4-((1-methylpiperidin-4-yl)oxy)phenyl)-1H-indazol-5-yl)-2-(pyrrolidin-1-yl)-2-(thiophen-3-yl)acetamide]",IC50,human PLK4,≤ 5 µM
same,IC50,Aurora B,≤ 5 µM
"O=C(NC(c1ccsc1)C1CC1)c1ccc2[nH]nc(-c3ccc(N4CCC(O)CC4)cc3)c2c1 (centres unmarked) [Example A101, N-(cyclopropyl(thiophen-3-yl)methyl)-3-(4-(4-hydroxypiperidin-1-yl)phenyl)-1H-indazole-5-carboxamide]",IC50,human PLK4,≤ 5 µM
same,IC50,Aurora B,≤ 5 µM
"O=C(N[C@@H](c1ncccc1Cl)C1CC1)c1ccc2[nH]nc(-c3ccc(OC4CCN(C5COC5)CC4)cc3)c2c1 [Example A215, (R)—N-((3-chloropyridin-2-yl)(cyclopropyl)methyl)-3-(4-((1-(oxetan-3-yl)piperidin-4-yl)oxy)phenyl)-1H-indazole-5-carboxamide]",IC50,human PLK4,≤ 5 µM
same,IC50,human TTK,≤ 5 µM
